Measurements taken from paper PMC6249039 (Journal of medicinal chemistry, 2018).

Assays:
influenza = assay type: cell-based
HIV IN = HIV IN (Human immunodeficiency virus type 1 group M subtype B, UniProt P04585); assay type: biochemical; conditions: 200 μM
HDAC-6 = target: T1, HDAC-6 (Homo sapiens, UniProt Q9UBN7); test: Cross-inhibition screen, HDAC-6; assay type: biochemical; conditions: 200 μM
T1 sequence (Q9UBN7 1-1215): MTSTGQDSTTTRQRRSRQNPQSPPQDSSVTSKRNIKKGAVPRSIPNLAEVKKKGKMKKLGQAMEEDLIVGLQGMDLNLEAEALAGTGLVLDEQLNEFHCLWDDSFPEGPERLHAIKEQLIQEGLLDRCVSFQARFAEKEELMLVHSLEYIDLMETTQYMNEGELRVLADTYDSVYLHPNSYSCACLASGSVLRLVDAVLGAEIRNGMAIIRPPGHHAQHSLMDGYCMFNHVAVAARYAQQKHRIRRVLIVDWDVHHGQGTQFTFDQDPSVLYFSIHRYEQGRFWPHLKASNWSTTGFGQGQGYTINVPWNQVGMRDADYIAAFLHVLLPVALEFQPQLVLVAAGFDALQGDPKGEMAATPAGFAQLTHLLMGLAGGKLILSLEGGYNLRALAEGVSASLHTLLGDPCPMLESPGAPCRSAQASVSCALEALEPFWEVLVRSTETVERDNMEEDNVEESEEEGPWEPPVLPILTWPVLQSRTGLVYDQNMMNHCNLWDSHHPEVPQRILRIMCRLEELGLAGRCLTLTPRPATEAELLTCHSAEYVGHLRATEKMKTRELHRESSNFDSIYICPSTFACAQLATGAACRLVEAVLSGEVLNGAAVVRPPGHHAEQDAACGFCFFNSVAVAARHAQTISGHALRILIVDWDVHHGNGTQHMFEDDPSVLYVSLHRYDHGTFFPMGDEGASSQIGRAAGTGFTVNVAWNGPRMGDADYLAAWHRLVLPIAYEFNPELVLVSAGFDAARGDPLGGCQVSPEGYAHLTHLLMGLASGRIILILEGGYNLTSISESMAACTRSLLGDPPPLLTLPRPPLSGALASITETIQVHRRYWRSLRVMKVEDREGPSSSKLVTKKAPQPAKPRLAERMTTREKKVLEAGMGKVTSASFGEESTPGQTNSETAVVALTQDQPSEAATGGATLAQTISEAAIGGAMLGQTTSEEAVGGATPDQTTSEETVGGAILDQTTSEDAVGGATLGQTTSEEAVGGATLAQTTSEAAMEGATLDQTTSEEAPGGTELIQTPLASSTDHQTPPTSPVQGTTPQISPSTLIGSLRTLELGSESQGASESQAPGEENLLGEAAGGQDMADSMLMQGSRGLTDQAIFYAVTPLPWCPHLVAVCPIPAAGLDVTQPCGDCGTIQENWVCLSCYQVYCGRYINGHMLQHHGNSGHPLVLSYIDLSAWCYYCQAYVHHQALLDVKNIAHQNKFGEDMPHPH

[1] = target: human carbonic anhydrase II (hCAII) (Homo sapiens, UniProt P00918); test: Cross-inhibition screen, human carbonic anhydrase II; assay type: biochemical; conditions: 200 μM
[2] = cited from earlier work

| SMILES | Antiviral activity in cell-based assays (influenza) | other results |
| --- | --- | --- |
| Cc1cc(=O)c(O)c(C(=O)O)o1 [Compound 1, 3-Hydroxy-6-methyl-4-oxo-4H-pyran-2-carboxylic acid] | little antiviral activity | Percent inhibition, HIV IN 3'-processing activity (HIV IN): no inhibition; Percent inhibition, HDAC-6 (HDAC-6): no inhibition; Percent inhibition, hCAII [1]: no inhibition |
| O=c1c(O)ccccc1O [Compound 32, α-hydroxytropolone] | little antiviral activity |  |
| Cc1cc(=S)c(O)c(C(=O)O)o1 [Compound 22] | little antiviral activity |  |
| O=C(O)c1occc(=O)c1O [Compound 3] | little antiviral activity |  |
| Cc1cc(=O)c(O)c(C(=O)O)[nH]1 [Compound 17, 3-Hydroxy-6-methyl-4-oxo-1,4-dihydropyridine-2-carboxylic acid] | little antiviral activity |  |
| Cc1cc(O)c(=O)c(O)cc1C(=O)O [Compound 33, 5-Methyl-2,7-dihydroxytropolone-4-carboxylic acid] | little antiviral activity |  |
| O=C(O)c1cccc(O)c1O [Compound 7] |  | pKa reported, first value ([2]; phenolic oxygen): 10.30; pKa reported, second value ([2]; phenolic oxygen): 13.48 |
| Cc1cc(C(=O)O)c(O)c(=O)[nH]1 [Compound 18] | little antiviral activity |  |
| O=c1cc[nH]c(-c2nnn[nH]2)c1O [Compound 27] | little antiviral activity |  |
| O=C(O)c1cccc(=O)n1O [Compound 5] |  | pKa reported ([2]; N-hydroxy donor oxygen): 7.51 |
